Measured values taken from patent EP4813979A1, “COMPOUND FOR EGFR PROTEIN DEGRADATION AND USE THEREOF” (TYK Medicines, Inc., priority 2023, dated 2025).
Where two headings read alike, the source gives them in different places.

How the values were obtained:
A431 = assay: Cell anti-proliferation experiment (CTG); format: cell-based; conditions: Homo sapiens, A431 (wild-type EGFR), class symbol
Excerpt: (§1) H1975 has an EGFR: T790M/L858R double mutation, PC-9 has an EGFR exon 19 deletion, and HCC827 has an exon 19 deletion mutation. Baf3-19del- T790M -C797S (Baf3-DTC) is a stable Ba/F3 clone expressing exogenous EGFR gene bearing T790M, C797S, and […] triple amino acid mutations, purchased from KYinno. Baf3-L858R-T790M - C797S (Baf3-LTC) is a stable Ba/F3 clone expressing exogenous EGFR gene bearing […], T790M, and C797S triple mutations, purchased from KYinno. A549 is a wild-type EGFR, purchased from Nanjing Kebai Biotechnology. A431 is a wild-type EGFR, purchased from Shanghai Xinyu Biotechnology. CellCounting-Lite2.0, Trypsin EDTA, 37°C CO2 incubator, cell counter, EnVision Serial No. 1050454.
(§2) • A) Digested logarithmic phase cells with Trypsin EDTA, added culture medium to stop the reaction, and mixing well with a pipette to prepare a cell suspension. • B) Used Vi-cell to determine cell concentration, and prepared a suspension of 15,000-25,000 cells per milliliter according to the experimental purpose and cell characteristics. • C) After prepared the cell suspension, mixed it gently and added 100 µL to each well, so that the cell density to be tested is 1500-2500 per well.
(§3) • A) Weighed approximately 2 mg the compound and calculated the required volume of DMSO according to the formula: Compound mass (mg) * Compound purity (%) / Compound molecular weight * 1000. • B) Placed the inoculated cell culture plate into an incubator and incubated for about 24 hours. Then added compounds of varying concentrations. • C) Diluted the 10mM compound stock solution to […] with culture medium, and added the […] compound solution to the second column of the deep well plate in sequence, and added […] culture medium containing 0.5% DMSO to the third to eleventh columns. • D) Gradient dilution: Taked 125 µL solution from the second column and added it to the third column, mix well; then taked 125 µL solution from the third column and added it to the fourth column, repeated this operation until the tenth column. • E) Used a multichannel pipette, aspirated 25 µL the compound from the deep-well plate and added it to a 96-well culture plate. Repeated this process three times for each compound on the 96-well plate. This will ultimately create a concentration gradient of up to 10,000 nM at a 1:4 ratio on the 96-well plate.
(§4) • A) The effects of the compound were observed under an inverted microscope after the 96-well plate was incubated in an incubator for 72 hours. • B) Added 25 µL CTG solution to each well, placed on a shaker for 10 minutes, and read the […] of each well.
(§5) Calculate the % Cell Viability using the following formula: %Cell Viability = 100% × (Lum_Sample−Lum_LC)/(Lum_HC−Lum_LC) [formula] • Lum_HC: Cell readings from the 0.1% DMSO control group • Lum_Sample: Cell readings with added compound • Lum_LC: Blank culture medium reading
(§6) The IC50 value was obtained by curve fitting using GraphPad Prism 8 software.

A549 = assay: Cell anti-proliferation experiment (CTG); format: cell-based; conditions: Homo sapiens, A549 (wild-type EGFR), class symbol
Excerpt: as §1, §2, §3, §4, §5, §6

[1] = system: Baf3-19del- T790M -C797S (Baf3-DTC); assay: Cell anti-proliferation experiment (CTG); format: cell-based; conditions: class symbol
Excerpt: as §1, §2, §3, §4, §5, §6

[2] = system: Baf3-L858R-T790M - C797S (Baf3-LTC); assay: Cell anti-proliferation experiment (CTG); format: cell-based; conditions: class symbol
Excerpt: as §1, §2, §3, §4, §5, §6

H1975 = assay: Cell anti-proliferation experiment (CTG); format: cell-based; conditions: Homo sapiens, H1975 (EGFR T790M/L858R), class symbol
Excerpt: as §1, §2, §3, §4, §5, §6

HCC827 = assay: Cell anti-proliferation experiment (CTG); format: cell-based; conditions: Homo sapiens, HCC827 (exon 19 deletion), class symbol
Excerpt: as §1, §2, §3, §4, §5, §6

PC-9 = assay: Cell anti-proliferation experiment (CTG); format: cell-based; conditions: Homo sapiens, PC-9 (EGFR exon 19 deletion), class symbol
Excerpt: as §1, §2, §3, §4, §5, §6

[3] = target: EGFR in Baf3-19del-T790M-C797S (Homo sapiens, UniProt P00533, C797S/DEL746-750/T790M); assay: EGFR PROTAC HTRF experiment (total EGFR degradation); format: cell-based
Procedure: (§7) [table] Among them, B[…] -C797S (abbreviated as Baf3-DTC) is a stable Ba/F3 clone expressing exogenous EGFR gene bearing T790M, C797S and […] triple amino acid mutations, purchased from KYinno; Baf3-L858R-T790M - C797S (abbreviated as Baf3-LTC) is a stable Ba/F3 clone expressing exogenous EGFR gene bearing […], T790M, C797S triple mutations, purchased from KYinno. [table] [table] Dilutded Eu and d2 antibodies 2μl per well with detection buffer 20-fold. Then mixed the two antibody vials thoroughly. [table] Opened EnVision , locate the HTRF program, configured the board, and then read […]. The fitted curve, DC50 and Dmax of this compound could be generated using GraphPad Prism .

[4] = target: EGFR in Baf3-L858R-T790M-C797S (Homo sapiens, UniProt P00533, C797S/L858R/T790M); assay: as above; format: cell-based
Procedure: as §7

[5] = Pharmacokinetic tests in male SD rats; format: in vivo; conditions: oral gavage (po), 10 mg/kg, plasma
Procedure: Three healthy adult male SD rats, 6-8 weeks old, weighing 200-300 grams.
EDTA-Na2 anticoagulant, weighed 11.2 g EDTA-Na2 and placed it in a reagent bottle. Added 100 mL physiological saline and shaked to dissolve completely. After preparation, dispensed into 1.5 mL centrifuge tubes, each containing approximately 20 µL, for whole blood sample collection.
Accurately weighed approximately 10 mg the sample to be tested, added 10% of the converted total volume of DMSO to dissolve it, and then slowly added 90% of the total volume of 0.5% MC solvent while stirring. Sonicated and vortex to mix thoroughly to obtain a solution of the preparation that is considered to be homogeneous, with a concentration of 1 mg/mL. Prepared fresh immediately before use.
Piped 0.2 mL the sample into a 1.5 mL centrifuge tube and store at -80°C for analysis of the concentration of the drug solution.
Animals were housed in rat cages and fasted for at least 10 hours starting the day before the experiment, but water was allowed. On the day of the experiment, each animal was weighed and marked on its tail. Blank blood samples were collected before drug administration. Blood was collected via tail vein.
• Route of administration: Oral gavage (po); • Dosage concentration: 1 mg/ml; • Dosage: 10 mg/kg; • Dosage volume: 10 mL/kg; • Procedure: Hold the rat upright with your left hand wearing a bite-proof glove, insert the gavage needle into the throat through the mouth, and insert the needle when feeling no obvious resistance. Then inject the drug into the stomach.
Whole blood (0.1-0.2 ml) was collected from test animals at 0.5 h, 1 h, 2 h, 4 h, 6 h, 8 h, 12 h, and 24 h after drug administration. The samples were placed in EDTA-Na 2 anticoagulant tubes, inverted 3-4 times to mix, and centrifuged at 4°C, 2000 g for 5 min to separate the supernatant plasma. The plasma was promptly transferred to -80°C for storage until analysis. Blood was collected via tail vein.
A quantitative detection method for the analyte was established using Shimadzu liquid chromatography and Triple Quad™ 6500+AB mass spectrometry. The concentration of the parent drug in plasma was analyzed. The analytical results were controlled for variation using quality control samples, with the accuracy of the quality control samples expected to be between 80% and 120%.
The main pharmacokinetic parameters were calculated using a non-compartmental model in Winnonlin Phoenix software. These parameters included the area under the curve (AUC(0-t) and AUC(0-∞)), elimination half-life (T1/2), maximum plasma concentration (Cmax ), and time to reach maximum plasma concentration (Tmax).The results are shown in Table 3.

[6] = read-out: Baf3-DTC DC50; Baf3-DTC, incubated 16 hours, HTRF total EGFR
[7] = read-out: Baf3-LTC DC50; Baf3-LTC, incubated 16 hours, HTRF total EGFR

EGFR in Baf3-L858R-T790M-C797S, sequence (P00533 25-1210 T790M/C797S/L858R): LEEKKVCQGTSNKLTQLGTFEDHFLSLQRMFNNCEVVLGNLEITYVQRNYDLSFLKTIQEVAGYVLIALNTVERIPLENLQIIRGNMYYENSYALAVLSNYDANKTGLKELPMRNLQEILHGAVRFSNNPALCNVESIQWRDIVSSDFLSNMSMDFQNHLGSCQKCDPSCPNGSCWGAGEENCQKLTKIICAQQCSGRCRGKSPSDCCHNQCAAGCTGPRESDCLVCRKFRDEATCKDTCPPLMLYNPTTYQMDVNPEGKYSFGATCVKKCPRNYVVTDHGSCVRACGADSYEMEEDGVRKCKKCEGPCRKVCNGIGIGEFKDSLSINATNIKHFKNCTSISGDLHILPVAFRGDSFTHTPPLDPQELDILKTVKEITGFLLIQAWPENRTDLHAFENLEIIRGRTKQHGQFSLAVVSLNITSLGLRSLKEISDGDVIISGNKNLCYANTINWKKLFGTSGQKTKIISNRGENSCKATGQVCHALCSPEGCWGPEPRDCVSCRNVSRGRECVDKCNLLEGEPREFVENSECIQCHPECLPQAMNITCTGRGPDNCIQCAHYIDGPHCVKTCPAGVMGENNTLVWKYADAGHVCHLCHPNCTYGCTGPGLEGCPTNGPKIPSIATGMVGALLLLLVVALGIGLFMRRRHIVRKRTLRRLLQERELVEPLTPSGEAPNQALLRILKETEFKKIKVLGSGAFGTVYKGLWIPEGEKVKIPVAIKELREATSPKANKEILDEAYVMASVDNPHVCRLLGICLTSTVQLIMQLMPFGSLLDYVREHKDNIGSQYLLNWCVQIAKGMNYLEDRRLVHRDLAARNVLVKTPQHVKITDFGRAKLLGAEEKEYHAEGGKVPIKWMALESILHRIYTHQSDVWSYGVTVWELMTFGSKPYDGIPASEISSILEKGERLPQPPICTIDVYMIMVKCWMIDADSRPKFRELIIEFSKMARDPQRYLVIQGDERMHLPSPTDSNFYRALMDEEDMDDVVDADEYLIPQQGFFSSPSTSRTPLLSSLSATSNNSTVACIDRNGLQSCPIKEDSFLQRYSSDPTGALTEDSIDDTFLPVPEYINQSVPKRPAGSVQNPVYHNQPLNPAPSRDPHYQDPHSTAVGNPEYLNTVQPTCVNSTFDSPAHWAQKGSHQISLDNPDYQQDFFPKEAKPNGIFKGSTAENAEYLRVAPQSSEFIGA
EGFR in Baf3-19del-T790M-C797S, sequence (P00533 with tags, fused parts or gaps DEL746-750/T790M/C797S): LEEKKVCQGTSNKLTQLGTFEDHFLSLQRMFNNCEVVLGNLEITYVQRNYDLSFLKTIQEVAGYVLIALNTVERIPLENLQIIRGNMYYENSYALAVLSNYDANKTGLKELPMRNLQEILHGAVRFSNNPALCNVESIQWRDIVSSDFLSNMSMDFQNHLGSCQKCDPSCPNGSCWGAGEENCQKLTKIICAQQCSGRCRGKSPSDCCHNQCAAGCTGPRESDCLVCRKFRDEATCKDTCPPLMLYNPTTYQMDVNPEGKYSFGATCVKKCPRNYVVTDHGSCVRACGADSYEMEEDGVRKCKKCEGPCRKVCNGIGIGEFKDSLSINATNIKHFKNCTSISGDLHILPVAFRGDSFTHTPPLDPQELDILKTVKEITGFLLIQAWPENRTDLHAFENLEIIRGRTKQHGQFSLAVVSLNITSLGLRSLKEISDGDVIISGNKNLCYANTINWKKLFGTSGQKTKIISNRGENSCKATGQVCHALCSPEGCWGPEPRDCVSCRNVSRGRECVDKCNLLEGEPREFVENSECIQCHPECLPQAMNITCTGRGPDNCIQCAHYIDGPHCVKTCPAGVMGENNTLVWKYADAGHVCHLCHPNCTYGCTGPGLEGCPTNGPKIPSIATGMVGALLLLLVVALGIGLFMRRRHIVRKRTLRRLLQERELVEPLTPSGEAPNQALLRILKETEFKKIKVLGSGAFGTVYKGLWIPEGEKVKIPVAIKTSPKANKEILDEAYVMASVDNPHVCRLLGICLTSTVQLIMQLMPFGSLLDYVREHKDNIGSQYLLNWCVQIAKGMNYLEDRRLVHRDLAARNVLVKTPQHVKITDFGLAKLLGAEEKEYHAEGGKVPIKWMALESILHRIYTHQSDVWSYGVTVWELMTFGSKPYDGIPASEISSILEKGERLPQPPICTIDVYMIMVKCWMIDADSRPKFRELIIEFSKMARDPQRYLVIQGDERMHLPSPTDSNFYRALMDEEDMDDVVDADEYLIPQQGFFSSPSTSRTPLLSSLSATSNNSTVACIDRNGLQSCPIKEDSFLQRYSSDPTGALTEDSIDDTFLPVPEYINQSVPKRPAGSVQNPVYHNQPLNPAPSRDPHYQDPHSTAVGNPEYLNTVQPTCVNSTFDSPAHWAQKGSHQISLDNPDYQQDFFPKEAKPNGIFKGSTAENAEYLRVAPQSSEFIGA

Compound	IC50 (A431; A-431, 72 hours)	IC50 (A549; 72 hours)	IC50 ([1]; 72 hours)	IC50 ([2]; 72 hours)	IC50 (H1975; NCI-H1975, 72 hours)	IC50 (HCC827; 72 hours)	IC50 (PC-9; 72 hours)	DC50 [3, 6]	Dmax ([3]; read-out: Baf3-DTC Dmax)	DC50 [4, 7]	Dmax ([4]; read-out: Baf3-LTC Dmax)	further results
CCc1cc(Nc2ncc(Cl)c(Nc3ccccc3N(C)S(C)(=O)=O)n2)c(OC)cc1N1CCN(C(=O)CN2CCC(c3cc4c(cc3F)c(N3CCC(=O)NC3=O)nn4C)C(F)(F)C2)CC1 (centres unmarked) [TA-013]												IC50 (A431; A-431, 72 h): > 1000 nM; IC50 (A549; A549, 72 h): > 1000 nM; IC50 ([1]; 72 h): < 10 nM; IC50 ([2]; 72 h): 10 to 100 nM; IC50 (H1975; NCI-H1975, 72 h): 10 to 100 nM; IC50 (HCC827; HCC827, 72 h): > 1000 nM; IC50 (PC-9; PC-9, 72 h): > 1000 nM; DC50 ([3]; Baf3-DTC, incubated 16 hours, HTRF total EGFR; read-out: Baf3-DTC DC50): < 10 nM; Dmax ([3]; Baf3-DTC, incubated 16 hours, HTRF total EGFR; read-out: Baf3-DTC Dmax): 70 to 100%; DC50 ([4]; Baf3-LTC, incubated 16 hours, HTRF total EGFR; read-out: Baf3-LTC DC50): < 10 nM; Dmax ([4]; Baf3-LTC, incubated 16 hours, HTRF total EGFR; read-out: Baf3-LTC Dmax): 70 to 100%
CCc1cc(Nc2ncc(Br)c(Nc3ccccc3P(C)(C)=O)n2)c(OC)cc1N1CCN(C(=O)CN2CCC(c3cc4c(cc3F)c(N3CCC(=O)NC3=O)nn4C)C(F)(F)C2)CC1 (centres unmarked) [TC-158]	> 1000 nM	> 1000 nM	< 10 nM	< 10 nM	10 to 100 nM	100 to 1000 nM	100 to 1000 nM	< 10 nM	70 to 100%	< 10 nM	70 to 100%	HL [5]: 2.81 h; AUC(0-inf) ([5]; rat): 5610 ng·h/mL; AUC(0-t) ([5]; rat): 5590 ng·h/mL; Cmax ([5]; rat): 533 ng/mL; MRT last ([5]; rat): 6.02 h; Tmax ([5]; rat): 2.67 h
CCc1cc(Nc2ncc(Br)c(Nc3ccccc3P(C)(C)=O)n2)c(OC)cc1N1CC2(CCN(C(=O)CN3CCC(c4cc5c(cc4F)c(N4CCC(=O)NC4=O)nn5C)C(F)(F)C3)CC2)C1 (centres unmarked) [TC-164]	> 1000 nM	> 1000 nM	< 10 nM	< 10 nM	< 10 nM	10 to 100 nM	100 to 1000 nM	< 10 nM	70 to 100%	< 10 nM	70 to 100%	
CCc1cc(Nc2ncc(Cl)c(Nc3ccc4nccnc4c3P(C)(C)=O)n2)c(OC)cc1N1CCN(C(=O)CN2CCC(c3cc4c(cc3F)c(N3CCC(=O)NC3=O)nn4C)C(F)(F)C2)CC1 (centres unmarked) [TA-007]	10 to 100 nM	10 to 100 nM	10 to 100 nM	< 10 nM	100 to 1000 nM	10 to 100 nM	100 to 1000 nM	< 10 nM	70 to 100%	< 10 nM	70 to 100%	
